From patent publication US12582598B2, “Topical anti-inflammatory pharmaceutical composition comprising Zileuton” (QURIENT CO., LTD., priority 2019, dated 2026)
Converted amounts (≈) assume the structure as drawn. Values belong to the molecule of their own block, whether it stands above or below them.

Key:
[1] = Approximate solubility of Zileuton in various solvents/vehicles; type: physicochemical
Protocol: Solubility of Zileuton in Various Solvents
Approximately solubility of the Zileuton was measured in different vehicles. Semi-soild and waxy solid excipients were melted and tested at 50° C. or 70° C.

[2] = system: phorbol ester induced ear edema in ICR mice; test: Phorbol ester induced ear edema test; type: in vivo
Protocol: Phorbol Ester Induced Ear Edema Test
The effect of Zileuton-containing formulations on phorbol ester induced ear edema in ICR mice was evaluated. One hundred and twenty (120) female ICR mice were assigned to eleven (11) groups by randomization with BioBook software to achieve similar mean weight and right ear thickness baseline among groups. Mice were terminated by 95% CO2 asphyxiation and then cervical dislocation.
Totally nine (9) Zileuton-containing formulations which are SO13, SO17, WB6, Gel-10, Gel-11, LO3, LO13, SPC19 and Zileuton 1.0% cream were selected for the tests Dexamethasone were used for the reference and Acetone was treated to the vehicle group.
Mice were anesthetized with 2-5 isoflurane. The mice were sensitized by painting 5 μg of phorbol ester dissolved in 0.02 mL of Acetone on ear inside and out. […] Six (6) hours after the modeling, the both side's ear thickness were measured after anesthetized by isoflurane (2-3%), respectively. Ear swelling response was determined by ear thickness measured with a micrometer before challenge and 6 hours after challenge and reported as the mean change in ear thickness (ΔT±S.E.M.). Percent suppression of ear swelling response was calculated as % suppression=[1−(ΔT of sensitized mice exposed to experimental treatment/ΔT of sensitized mice exposed to vehicle treatment)]×100.

solubility ([1]; 25 mM sodium citrate buffer, 25 °C, pH 4, aqueous buffer, vehicle 25 mM sodium citrate buffer solution (pH = 4)): < 5 mg/mL | solubility ([1]; 20% 2-Hydroxypropyl-β-cyclodextrin in water, 25 °C, aqueous with cosolvent or surfactant or cyclodextrin, vehicle 20% 2-Hydroxypropyl-β-cyclodextrin in water): 10 to 16.7 mg/mL (≈ 42.3 to 70.7 mM) | solubility ([1]; 20% Poloxamer 188 in water, 25 °C, aqueous with cosolvent or surfactant or cyclodextrin, vehicle 20% Poloxamer 188 water): < 5 mg/mL | solubility ([1]; 20% Sulfobutylether-β-cyclodextrin in water, 25 °C, aqueous with cosolvent or surfactant or cyclodextrin, vehicle 20% Sulfobutylether-β-cyclodextrin in water): 10 to 16.7 mg/mL (≈ 42.3 to 70.7 mM) | solubility ([1]; 25 °C, pH 4, aqueous with cosolvent or surfactant or cyclodextrin, vehicle 20% 2-Hydroxypropyl-β-cyclodextrin in pH 4 sodium citrate buffer): 10 to 16.7 mg/mL (≈ 42.3 to 70.7 mM) | solubility ([1]; 25 °C, pH 4, aqueous with cosolvent or surfactant or cyclodextrin, vehicle 20% Sulfobutylether-β-cyclodextrin in pH 4 sodium citrate buffer): 5 to 10 mg/mL (≈ 21.2 to 42.3 mM) | solubility ([1]; Beeswax polyethylene glycol-8, 70 °C, oil or lipid, vehicle Beeswax polyethylene glycol-8, 70° C.): 15.7 to 25 mg/mL (≈ 66.4 to 106 mM) | solubility ([1]; Caprylic glycerides, 50 °C, oil or lipid, vehicle Caprylic glycerides): 18.2 to 28.6 mg/mL (≈ 77 to 121 mM) | solubility ([1]; Caprylocaproyl polyoxyl glycerides, 25 °C, oil or lipid, vehicle Caprylocaproyl polyoxyl glycerides): 40 to 66.7 mg/mL (≈ 169 to 282 mM) | solubility ([1]; Castor oil, 25 °C, oil or lipid, vehicle Castor oil): < 5 mg/mL | solubility ([1]; Corn oil, 25 °C, oil or lipid, vehicle Corn oil): < 5 mg/mL | solubility ([1]; Diethylene glycol monoethyl ether, 25 °C, organic solvent or mixture, vehicle Diethylene glycol monoethyl ether): > 200 mg/mL | solubility ([1]; Dimethyl acetamide, 25 °C, organic solvent or mixture, vehicle Dimethyl acetamide): 66.7 to 100 mg/mL (≈ 282 to 423 mM) | solubility ([1]; Dimethyl formamide, 25 °C, organic solvent or mixture, vehicle Dimethyl formamide): 100 to 200 mg/mL (≈ 423 to 846 mM) | solubility ([1]; Dimethyl sulfoxide, 25 °C, organic solvent or mixture, vehicle Dimethyl sulfoxide): 100 to 200 mg/mL (≈ 423 to 846 mM) | solubility ([1]; Ethanol, 25 °C, organic solvent or mixture, vehicle Ethanol): 40 to 50 mg/mL (≈ 169 to 212 mM) | solubility ([1]; Ethyl oleate, 25 °C, oil or lipid, vehicle Ethyl oleate): < 5 mg/mL | solubility ([1]; Ethylene glycol palmitostearate, 70 °C, oil or lipid, vehicle Ethylene glycol palmitostearate): 50 to 100 mg/mL (≈ 212 to 423 mM) | solubility ([1]; Glycerin, 25 °C, organic solvent or mixture, vehicle Glycerin): < 10 mg/mL | solubility ([1]; Glyceryl mono and di stearate, 70 °C, oil or lipid, vehicle Glyceryl mono and di stearate): 25 to 50 mg/mL (≈ 106 to 212 mM) | solubility ([1]; Glyceryl monocaprate type I, 25 °C, oil or lipid, vehicle Glyceryl monocaprate type I): 8.3 to 12.5 mg/mL (≈ 35.1 to 52.9 mM) | solubility ([1]; Glyceryl monolinoleate, 25 °C, oil or lipid, vehicle Glyceryl monolinoleate): < 5 mg/mL | solubility ([1]; Glyceryl monostearate, 70 °C, oil or lipid, vehicle Glyceryl monostearate): 25 to 50 mg/mL (≈ 106 to 212 mM) | solubility ([1]; Hexylene glycol, 25 °C, organic solvent or mixture, vehicle Hexylene glycol): 25 to 50 mg/mL (≈ 106 to 212 mM) | solubility ([1]; Isopropyl myristate, 25 °C, oil or lipid, vehicle Isopropyl myristate): < 5 mg/mL | solubility ([1]; Lanolin, 70 °C, oil or lipid, vehicle Lanolin): < 5 mg/mL | solubility ([1]; Lauroyl polyoxyl-6 glycerides, 50 °C, oil or lipid, vehicle Lauroyl polyoxyl-6 glycerides): < 10 mg/mL | solubility ([1]; Lauroyl polyoxyl-32 glycerides, 50 °C, oil or lipid, vehicle Lauroyl polyoxyl-32 glycerides): < 10 mg/mL | solubility ([1]; Linoleoyl polyoxyl-6 glycerides, 25 °C, oil or lipid, vehicle Linoleoyl polyoxyl-6 glycerides): < 5 mg/mL | solubility ([1]; Liquid paraffin, 25 °C, oil or lipid, vehicle Liquid paraffin): < 5 mg/mL | solubility ([1]; Medium chain triglycerides, 25 °C, oil or lipid, vehicle Medium chain triglycerides): < 5 mg/mL | solubility ([1]; N-methyl-2-pyrrolidone, 25 °C, organic solvent or mixture, vehicle N-methyl-2-pyrrolidone): > 200 mg/mL | solubility ([1]; Oleic acid, 25 °C, oil or lipid, vehicle Oleic acid): < 5 mg/mL | solubility ([1]; Oleoyl polyoxyl-6 glycerides, 25 °C, oil or lipid, vehicle Oleoyl polyoxyl-6 glycerides): < 5 mg/mL | solubility ([1]; Olive oil, 25 °C, oil or lipid, vehicle Olive oil): < 5 mg/mL | solubility ([1]; Paraffin, 70 °C, oil or lipid, vehicle Paraffin): < 5 mg/mL | solubility ([1]; Peceol, 25 °C, oil or lipid, vehicle Peceol): < 5 mg/mL | solubility ([1]; Poly-oxyethylene esters of 12-hydroxystearic acid, 50 °C, organic solvent or mixture, vehicle Poly-oxyethylene esters of 12-hydroxystearic acid): 40 to 100 mg/mL (≈ 169 to 423 mM) | solubility ([1]; Polyethylene glyco-40 hydrogenated castor oil, 50 °C, organic solvent or mixture, vehicle Polyethylene glyco-40 hydrogenated castor oil): 22.2 to 28.6 mg/mL (≈ 93.9 to 121 mM) | solubility ([1]; Polyethylene glycol 200, 25 °C, organic solvent or mixture, vehicle Polyethylene glycol 200, 25° C.): 50 to 66.7 mg/mL (≈ 212 to 282 mM) | solubility ([1]; Polyethylene glycol 300, 25 °C, organic solvent or mixture, vehicle Polyethylene glycol 300, 25° C.): 40 to 66.7 mg/mL (≈ 169 to 282 mM) | solubility ([1]; Polyethylene glycol 400, 25 °C, organic solvent or mixture, vehicle Polyethylene glycol 400, 25° C.): 40 to 66.7 mg/mL (≈ 169 to 282 mM) | solubility ([1]; Polyethylene glycol 1500, 70 °C, organic solvent or mixture, vehicle Polyethylene glycol 1500, 70° C.): 50 to 100 mg/mL (≈ 212 to 423 mM) | solubility ([1]; Polyethylene glycol 3350, 70 °C, organic solvent or mixture, vehicle Polyethylene glycol 3350, 70° C.): 25 to 50 mg/mL (≈ 106 to 212 mM) | solubility ([1]; Polyethylene glycol 6000, 70 °C, organic solvent or mixture, vehicle Polyethylene glycol 6000, 70° C.): 25 to 50 mg/mL (≈ 106 to 212 mM) | solubility ([1]; Polyethylene glycol octadecyl ether, 25 °C, organic solvent or mixture, vehicle Polyethylene glycol octadecyl ether): 10 to 11.1 mg/mL (≈ 42.3 to 47 mM) | solubility ([1]; Polyethylene glycol sorbitan monolaurate, 25 °C, organic solvent or mixture, vehicle Polyethylene glycol sorbitan monolaurate): 12.5 to 14.3 mg/mL (≈ 52.9 to 60.5 mM) | solubility ([1]; Polyoxy ethylene sorbitan monooleate, 25 °C, organic solvent or mixture, vehicle Polyoxy ethylene sorbitan monooleate): 12.5 to 14.3 mg/mL (≈ 52.9 to 60.5 mM) | solubility ([1]; Polyoxy ethylene sorbitan monostearate, 25 °C, organic solvent or mixture, vehicle Polyoxy ethylene sorbitan monostearate): 33.3 to 50 mg/mL (≈ 141 to 212 mM) | solubility ([1]; Polyoxyl 35 hydrogenated castor oil, 25 °C, organic solvent or mixture, vehicle Polyoxyl 35 hydrogenated castor oil): 12.5 to 14.3 mg/mL (≈ 52.9 to 60.5 mM) | solubility ([1]; Propylene glycol dicaprylate, 25 °C, oil or lipid, vehicle Propylene glycol dicaprylate): < 5 mg/mL | solubility ([1]; Propylene glycol monocaprylate type II, 25 °C, oil or lipid, vehicle Propylene glycol monocaprylate type II): 12.5 to 25 mg/mL (≈ 52.9 to 106 mM) | solubility ([1]; Propylene glycol monolaurate, 25 °C, oil or lipid, vehicle Propylene glycol monolaurate): 8.3 to 12.5 mg/mL (≈ 35.1 to 52.9 mM) | solubility ([1]; Propylene glycol, 25 °C, organic solvent or mixture, vehicle Propylene glycol): 40 to 66.7 mg/mL (≈ 169 to 282 mM) | solubility ([1]; Sorbitan monolaurate, 25 °C, oil or lipid, vehicle Sorbitan monolaurate): < 5 mg/mL | solubility ([1]; Sorbitane monooleate, 25 °C, oil or lipid, vehicle Sorbitane monooleate): < 5 mg/mL | solubility ([1]; Triethanolamine, 25 °C, organic solvent or mixture, vehicle Triethanolamine): < 10 mg/mL | solubility ([1]; Water, 25 °C, vehicle Water): < 5 mg/mL | solubility ([1]; White vaseline, 70 °C, oil or lipid, vehicle White vaseline): < 5 mg/mL | solubility ([1]; White wax, 70 °C, oil or lipid, vehicle White wax): < 5 mg/mL | solubility ([1]; d-a-tocopheryl polyethylene glycol 1000 succinate, 50 °C, oil or lipid, vehicle d-a-tocopheryl polyethylene glycol 1000 succinate): < 10 mg/mL
SMILES: CC(c1cc2ccccc2s1)N(O)C(N)=O (racemic) [Zileuton, (±)-1-(1-(benzo[b]thiophen-2-yl)ethyl)-1-hydroxyurea]

SMILES: C[C@@H]1C[C@H]2[C@@H]3CCC4=CC(=O)C=C[C@]4(C)[C@@]3(F)[C@@H](O)C[C@]2(C)[C@@]1(O)C(=O)CO [Dex, Dexamethasone]
ear swelling (ear swelling response) ([2]; ICR mice, phorbol ester 5 μg/ear, result in words): significant decrease in ear swelling | Suppression Rate: % suppression Vs G1-right ear ([2]; female ICR mice, phorbol ester (PMA) 5 μg/ear, topical treatment, ear thickness 6 hours after challenge, vs vehicle (Acetone) group): 27.14%
